According to ChEMBL document CHEMBL1201862, “PubChem BioAssay data set” (2004):
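Compound exposure: 48 hours, 5 concentrations, 96-well plates. The concentration for 50% growth inhibition is given as GI50.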 Calls of active or inactive are those of the source. Cut-off read from the data, not from the text of the source: active = GI50 up to about 1.1 µM and inactive = higher.

Tests used:
Assay in all cases: inhibition of tumour cell growth, NCI panel, 48 h
786-0 = system: 786-0
ACHN = system: ACHN
CCRF-CEM = system: CCRF-CEM
DLD-1 = system: DLD-1
HL-60 = system: HL-60
HOP-62 = system: HOP-62
K562 = system: K562
NCI-H226 = system: NCI-H226
NCI-H522 = system: NCI-H522
OVCAR-3 = system: OVCAR-3
SF-539 = system: SF-539
SK-MEL-28 = system: SK-MEL-28
SK-MEL-2 = system: SK-MEL-2
SK-MEL-5 = system: SK-MEL-5
SN12C = system: SN12C
SNB-78 = system: SNB-78

Measured: GI50

CN1CCCC2(CCCc3ccccc32)C1 (configuration not stated)
inactive: 786-0 > 100 µM | ACHN > 100 µM | CCRF-CEM > 100 µM | DLD-1 > 100 µM | HL-60 > 100 µM | HOP-62 > 100 µM | K562 > 100 µM | NCI-H226 > 100 µM | NCI-H522 > 100 µM | OVCAR-3 > 100 µM | SF-539 > 100 µM | SK-MEL-28 > 100 µM | SK-MEL-2 > 100 µM | SK-MEL-5 > 100 µM | SN12C > 100 µM | SNB-78 > 100 µM

COC(OC)c1cc2c(cc1C=O)OCO2
inactive: 786-0 > 100 µM | ACHN > 100 µM | CCRF-CEM > 100 µM | DLD-1 34.9 µM | HL-60 47.2 µM | HOP-62 > 100 µM | K562 64.9 µM | NCI-H226 > 100 µM | NCI-H522 > 100 µM | OVCAR-3 75.5 µM | SF-539 > 100 µM | SK-MEL-28 > 100 µM | SK-MEL-2 > 100 µM | SK-MEL-5 30.6 µM | SN12C > 100 µM | SNB-78 > 100 µM

OC(Cn1cncn1)(Cn1cncn1)c1ccc(Cl)cc1Cl
inactive: 786-0 > 100 µM | ACHN > 100 µM | CCRF-CEM > 100 µM | DLD-1 > 100 µM | HL-60 > 100 µM | HOP-62 > 100 µM | K562 > 100 µM | NCI-H226 > 100 µM | NCI-H522 > 100 µM | OVCAR-3 > 100 µM | SF-539 > 100 µM | SK-MEL-28 > 100 µM | SK-MEL-2 > 100 µM | SK-MEL-5 > 100 µM | SN12C > 100 µM | SNB-78 > 100 µM

C/C(CCN(C)C)=N\OC(=O)c1ccccc1
inactive: 786-0 > 100 µM | ACHN > 100 µM | CCRF-CEM > 100 µM | DLD-1 > 100 µM | HL-60 > 100 µM | HOP-62 > 100 µM | K562 > 100 µM | NCI-H226 > 100 µM | NCI-H522 > 100 µM | OVCAR-3 > 100 µM | SF-539 > 100 µM | SK-MEL-28 > 100 µM | SK-MEL-2 > 100 µM | SK-MEL-5 > 100 µM | SN12C > 100 µM | SNB-78 > 100 µM

CCC(C)n1c(C)nc2c1C(=O)c1ccccc1C2=O (configuration not stated)
inactive: 786-0 61.2 µM | ACHN 46.9 µM | CCRF-CEM 37.2 µM | DLD-1 27.2 µM | HL-60 14.5 µM | HOP-62 58.2 µM | K562 34 µM | NCI-H226 61.9 µM | NCI-H522 51.3 µM | OVCAR-3 32.5 µM | SF-539 32.7 µM | SK-MEL-28 75.7 µM | SK-MEL-2 > 100 µM | SK-MEL-5 26.9 µM | SN12C 57.8 µM | SNB-78 > 100 µM

CCCCCCCCCCCCC(=O)CCCCC(=O)O
inactive: 786-0 27.2 µM | ACHN 26.5 µM | CCRF-CEM 33.7 µM | DLD-1 17.9 µM | HL-60 13.5 µM | HOP-62 18.3 µM | K562 16.2 µM | NCI-H226 22.9 µM | NCI-H522 20.3 µM | OVCAR-3 31.8 µM | SF-539 17.5 µM | SK-MEL-28 20.7 µM | SK-MEL-2 20.7 µM | SK-MEL-5 18.2 µM | SN12C 24 µM | SNB-78 72.6 µM

COc1ccc(-c2onc(-c3c(C)cc(C)cc3C)c2C2=NCCN2)cc1
inactive: 786-0 31.1 µM | ACHN 86.3 µM | CCRF-CEM 34 µM | DLD-1 74 µM | HL-60 16.4 µM | HOP-62 59.2 µM | K562 28.2 µM | NCI-H226 17.8 µM | NCI-H522 > 10 µM | OVCAR-3 > 10 µM | SF-539 20 µM | SK-MEL-28 22.8 µM | SK-MEL-2 48.2 µM | SK-MEL-5 17.2 µM | SN12C 48.6 µM | SNB-78 35.2 µM
